Laboratory results: publication PMC3137752 (Alcohol (Fayetteville, N.Y.), 2010)

Columns and labels:
α6-100R-β3γ2 (α6β3γ2s) [1] = target: α6-100R-β3γ2 (α6β3γ2s) (Rattus norvegicus, UniProt P18508+P30191); test: radioligand association/dissociation kinetics, filtration; type: binding
α6-100R-β3γ2 (α6β3γ2s) [2] = target: α6-100R-β3γ2 (α6β3γ2s) (Rattus norvegicus, UniProt P18508+P30191, P30191:R119Q); test: as above; type: binding
Chain of α6-100R-β3γ2 (α6β3γ2s) (Rattus norvegicus, UniProt P18508+P30191, P30191:R119Q) (P30191 20-453 R119Q): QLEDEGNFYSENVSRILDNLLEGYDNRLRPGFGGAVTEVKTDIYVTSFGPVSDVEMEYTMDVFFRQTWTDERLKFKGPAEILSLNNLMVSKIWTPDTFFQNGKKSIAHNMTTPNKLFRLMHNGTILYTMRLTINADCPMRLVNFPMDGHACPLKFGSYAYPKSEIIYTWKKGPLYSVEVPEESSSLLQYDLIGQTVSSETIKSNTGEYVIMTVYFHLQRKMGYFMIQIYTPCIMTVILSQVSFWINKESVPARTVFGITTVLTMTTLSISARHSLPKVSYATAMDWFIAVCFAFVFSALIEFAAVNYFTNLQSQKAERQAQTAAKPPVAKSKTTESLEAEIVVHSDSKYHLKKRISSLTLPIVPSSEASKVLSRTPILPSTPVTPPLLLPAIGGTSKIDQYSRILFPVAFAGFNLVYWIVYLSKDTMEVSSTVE
Chain of α6-100R-β3γ2 (α6β3γ2s) (Rattus norvegicus, UniProt P18508+P30191, P30191:R119Q) (P18508 39-466): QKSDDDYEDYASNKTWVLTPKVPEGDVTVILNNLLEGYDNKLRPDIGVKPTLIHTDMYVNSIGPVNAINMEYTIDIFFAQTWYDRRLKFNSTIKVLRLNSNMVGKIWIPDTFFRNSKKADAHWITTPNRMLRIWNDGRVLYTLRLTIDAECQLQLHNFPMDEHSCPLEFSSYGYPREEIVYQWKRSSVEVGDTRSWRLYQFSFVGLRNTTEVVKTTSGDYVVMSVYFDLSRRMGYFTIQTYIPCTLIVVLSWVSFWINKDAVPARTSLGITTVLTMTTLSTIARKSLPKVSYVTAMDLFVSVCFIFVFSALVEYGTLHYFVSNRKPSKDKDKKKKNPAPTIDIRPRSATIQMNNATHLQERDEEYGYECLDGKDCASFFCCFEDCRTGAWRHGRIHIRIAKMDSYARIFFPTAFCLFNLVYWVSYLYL
Chain of α6-100R-β3γ2 (α6β3γ2s) (Rattus norvegicus, UniProt P18508+P30191, P30191:R119Q) (P63079 26-473 partner): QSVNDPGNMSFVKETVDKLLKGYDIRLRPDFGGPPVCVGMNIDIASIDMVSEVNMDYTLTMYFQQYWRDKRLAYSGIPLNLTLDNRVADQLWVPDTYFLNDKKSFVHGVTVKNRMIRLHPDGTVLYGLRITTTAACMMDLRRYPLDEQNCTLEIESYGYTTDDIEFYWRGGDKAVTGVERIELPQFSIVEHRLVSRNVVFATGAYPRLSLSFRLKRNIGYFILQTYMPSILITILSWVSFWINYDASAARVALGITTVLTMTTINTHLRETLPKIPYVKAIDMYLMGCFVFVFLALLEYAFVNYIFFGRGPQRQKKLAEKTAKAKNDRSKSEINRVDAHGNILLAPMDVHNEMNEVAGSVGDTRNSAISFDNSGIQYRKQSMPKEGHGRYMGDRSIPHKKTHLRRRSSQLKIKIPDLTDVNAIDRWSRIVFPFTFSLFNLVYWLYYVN

Chain of α6-100R-β3γ2 (α6β3γ2s) (Rattus norvegicus, UniProt P18508+P30191) (P30191 20-453): as the sequence (P30191 20-453 R119Q) above, with Q100R counted along it
Chain of α6-100R-β3γ2 (α6β3γ2s) (Rattus norvegicus, UniProt P18508+P30191) (P18508 39-466): as the sequence (P18508 39-466) above
Chain of α6-100R-β3γ2 (α6β3γ2s) (Rattus norvegicus, UniProt P18508+P30191) (P63079 26-473 partner): as the sequence (P63079 26-473 partner) above

## CCOC(=O)c1ncn2c1CN(C)C(=O)c1cc(N=[N+]=[N-])ccc1-2 [[^3H]Ro 15-4513]
α6-100R-β3γ2 (α6β3γ2s) [1]
  Kd: 2.4 ± 0.4 nM
α6-100R-β3γ2 (α6β3γ2s) [2]
  Kd: 1 ± 0.1 nM
